Reference: US20150368248A1, “2-SUBSTITUTED-6-BIARYLMETHYLAMINO-9-CYCLOPENTYL-9H-PURINE DERIVATIVES, USE THEREOF AS MEDICAMENTS, AND PHARMACEUTICAL COMPOSITIONS” (UNIVERZITA PALACKEHO V OLOMOUCI, priority 2013, published 2015)
pIC50: −log10 of the molar value. Where two headings read alike, the source gives them in different places.

Columns and labels:
[1] = system: HepG2; assay: MTT cytotoxicity assay (Example 30); type: cell-based; conditions: Homo sapiens
Excerpt: Cytotoxicity of the compounds is the major property determining their anticancer effect in vivo. One of the parameters used, as the basis for cytotoxicity assays, is the metabolic activity of viable cells. For example, a microtiter assay, which uses (3-(4,5-Dimethylthiazol-2-yl)-2,5-diphenyltetrazolium bromide (MTT), is widely used to quantitate cell proliferation and cytotoxicity. For instance, this assay is used in drug screening programs and in chemosensitivity testing. Because only metabolically active living cells reduce MTT to correspond purple formazan dye, these assays detect viable cells exclusively. The quantity of reduced MTT corresponds to the number of vital cells in the culture.
(§1) We have been using the following cell lines: HUH-7 and PLC/PRF/5 cell lines were maintained in DMEM supplemented with 10% fetal bovine serum, penicillin (100 U/ml) and streptomycin (100 μg/ml). Unique HCC-1.2 (3p) and HCC-1.1 (3sp) cell lines (Zilj et al., 2009, Future Oncol, 5(8):1169-79) and Hep3B cells were cultivated in RPMI supplemented with 10% fetal bovine serum, penicillin (100 U/ml) and streptomycin (100 μg/ml). HepG2 cell line was maintained in EMEM supplemented with 10% fetal bovine serum, sodium pyruvate (0.11 g/1), penicillin (100 U/ml) and streptomycin (100 μg/ml). All cell lines were cultivated at 37° C. in 5% CO2. For cytotoxicity assays, 3000 cells (10000 cells in case of HepG2 cell line) were seeded into each well of 96 well plate and the next day tested compounds were added at various concentrations in triplicates. Three days after drug addition MTT stock solution (5 mg/ml) was added into each well and incubated for 4 h. After this incubation period, produced formazan was dissolved by DMSO and final absorbance was measured at 570 nm with Synergy H4 Hybrid Multi-Mode Microplate Reader.

[2] = system: Hep3B; assay: MTT cytotoxicity assay (Example 30); type: cell-based, human; conditions: Homo sapiens, Hep3B
Method: (§2) Cytotoxicity of the compounds is the major property determining their anticancer effect in vivo. One of the parameters used, as the basis for cytotoxicity assays, is the metabolic activity of viable cells.
as §1, with “Unique HCC-1.2 (3p) and HCC-1.1 (3sp) cell lines (Zilj et al., 2009, Future Oncol, 5(8):1169-79) and Hep3B cells were cultivated in RPMI supplemented with 10% fetal bovine serum, penicillin (100 U/ml) and streptomycin (100 μg/ml).” left out

[3] = system: HCC-1.1 (3sp); assay: MTT cytotoxicity assay (Example 30); type: cell-based; conditions: Homo sapiens
Method: as §2
as §1, with “Unique HCC-1.2 (3p) and HCC-1.1 (3sp) cell lines (Zilj et al., 2009, Future Oncol, 5(8):1169-79) and Hep3B cells were cultivated in RPMI supplemented with 10% fetal bovine serum, penicillin (100 U/ml) and streptomycin (100 μg/ml).” left out

[4] = system: HCC-1.2 (3p); assay: MTT cytotoxicity assay (Example 30); type: cell-based; conditions: Homo sapiens
Method: as §2
as §1, with “Unique HCC-1.2 (3p) and HCC-1.1 (3sp) cell lines (Zilj et al., 2009, Future Oncol, 5(8):1169-79) and Hep3B cells were cultivated in RPMI supplemented with 10% fetal bovine serum, penicillin (100 U/ml) and streptomycin (100 μg/ml).” left out

[5] = system: HUH-7; assay: MTT cytotoxicity assay (Example 30); type: cell-based; conditions: Homo sapiens
Method: as §2
as §1, with “Unique HCC-1.2 (3p) and HCC-1.1 (3sp) cell lines (Zilj et al., 2009, Future Oncol, 5(8):1169-79) and Hep3B cells were cultivated in RPMI supplemented with 10% fetal bovine serum, penicillin (100 U/ml) and streptomycin (100 μg/ml).” left out

[6] = system: PLC/PRF/5; assay: MTT cytotoxicity assay (Example 30); type: cell-based; conditions: Homo sapiens
Method: as §2
as §1, with “Unique HCC-1.2 (3p) and HCC-1.1 (3sp) cell lines (Zilj et al., 2009, Future Oncol, 5(8):1169-79) and Hep3B cells were cultivated in RPMI supplemented with 10% fetal bovine serum, penicillin (100 U/ml) and streptomycin (100 μg/ml).” left out

[7] = biological target: T1, CDK5/p35 (Homo sapiens, UniProt Q00535); assay: Kinase inhibition assay, recombinant kinase, [γ-33P]ATP; type: biochemical; conditions: read-out: Residual kinase activity, CDK5
T1 construct: purchased ProQinase GmbH (Freiburg, Germany)
Method: (§3) CDK2/Cyclin E kinase was produced in Sf9 insect cells via baculoviral infection and purified on a NiNTA column (Qiagen). CDK5/p35, CDK7Cyclin H/MAT1 and CDK9/Cyclin T1 was purchased from ProQinase GmbH. The kinase reactions were assayed with 1 mg/mL histone H1 (for CDK2 and CDK5) or (YSPTSPS)2KK peptide (for CDK7 and CDK9) in the presence of 15/0.15/1.5/1.5 μM ATP (for CDK2/CDK5/CDK7CDK9), 0.05 μCi [γ-^33P]ATP and of the test compound in a final volume of 10 μL, all in a reaction buffer (60 mM HEPES-NaOH, pH 7.5, 3 mM MgCl2, 3 mM MnCl2, 3 μM Na-orthovanadate, 1.2 mM DTT, 2.5 μg/50 μl PEG20,000). The reactions were stopped by adding 5 μL of 3% aq H3PO4. Aliquots were spotted onto P-81 phosphocellulose (Whatman), washed 3× with 0.5% aq H3PO4 and finally air-dried.
(§4) CDK1/cyclin B and CDK2/cyclin E kinases were produced in Sf9 insect cells via baculoviral infection, while CDK5/p35, CDK7/cyclin H/MAT1, and CDK9/cyclin T1 were purchased from ProQinase (Freiburg, Germany) and assayed as described previously (35). The kinase reactions were assayed with 1 mg/ml histone H1 (for CDK2 and CDK5) or (YSPTSPS)2KK peptide (for CDK7 and CDK9) in the presence of 15/0.15/1.5/1.5 […] ATP (for CDK2/CDK5/CDK7CDK9), […] [γ-^33P]ATP and of the test compound in a final volume of […]. The reaction buffer contained 60 mM HEPES-NaOH, pH 7.5, 3 mM MgCl2, 3 mM MnCl2, 3 mM Na-orthovanadate, 1.2 mM DTT, 2.5 mg/50 ml PEG20.000. The reactions were stopped by adding […] of 3% H3PO4. Aliquots were spotted onto P-81 phosphocellulose (Whatman, GE Healthcare Biosciences, Pittsburgh, USA), washed 3 times with 0.5% H3PO4 and finally air-dried. Kinase inhibition was quantified using a FLA-7000 digital image analyzer (Fujifilm, Tokyo, Japan).

[8] = biological target: T2, CDK7/cyclin H/MAT1 (Homo sapiens, UniProt P50613); assay: as above; type: biochemical; conditions: read-out: Residual kinase activity, CDK7
T2 construct: purchased ProQinase GmbH (Freiburg, Germany)
Method: as §3, §4

[9] = biological target: T3, CDK9/Cyclin T1 (Homo sapiens, UniProt P50750); assay: as above; type: biochemical; conditions: read-out: Residual kinase activity, CDK9
T3 construct: purchased ProQinase GmbH (Freiburg, Germany)
Method: as §3, §4

[10] = system: caspase-3/7 activity in Hep3B cell line; assay: One-step cellular caspase-3/7 activity assay; type: cell-based, human; conditions: 24 hours, 0 nM = 1.00
Method: (§5) Measurements of proapoptotic properties of new compounds were based on quantification of enzymatic activities of caspases, concretely caspases-3/7. Activity of cellular caspase-3/7 was measured according to Carrasco et al., 2003, BioTechniques, 34(5): 1064-67. Briefly, Hep3B and PLC/PRF/5 cells were incubated in the densities of 10000 cells/well in a 96-well plate overnight. Next day, the compounds in appropriate concentrations were added and cells were incubated for the 24 hours. After incubation, 3× caspase-3/7 assay buffer (150 mM HEPES pH 7.4, 450 mM NaCl, 150 mM KCl, 30 mM MgCl2, 1.2 mM EGTA, 1.5% Nonidet P40, 0.3% CHAPS, 30% sucrose, 30 mM DTT, 3 mM PMSF) with 150 μM Ac-DEVD-AMC as a substrate (Sigma-Aldrich) was added to the wells and plates were incubated at […]. The caspase-3/7 activity was measured after 6 hours using Fluoroskan Ascent microplate reader (Labsystems) at 346 nm/442 nm (excitation/emission).

[11] = system: caspase-3/7 activity in PLC/PRF/5 cell line; assay: One-step cellular caspase-3/7 activity assay; type: cell-based, human; conditions: 24 hours incubation, relative to 0 nM = 1.00
Method: as §5

[12] = system: p53-regulated transcription in Arn8 cells; assay: p53-dependent transcriptional activity, β-galactosidase reporter; type: cell-based; conditions: 24 h incubation
Method: Stronger anticancer activity of the compounds is enhanced by its positive impact on stability and activity of the tumour suppressor p53. To measure p53-dependent transcriptional activity, β-galactosidase activity was quantified in the melanoma cell line Arn8, which had been established using stable transfection of cells with a p53-responsive reporter construct pRGCAfoslacZ (Frebung et al., Cancer Res., 52, 1992-6976). Briefly, after 24 h incubation with the inhibitors the Arn8 cells were permeabilized with 0.3% Triton X-100 for 15 min and then 4-methylumbelliferon-β-D-galactopyranoside was added as a substrate to the final concentration of 80 μM. After 1 h the fluorescence of product 4-methylumbelliferon was measured at 355/460 nm (ex/em) with a Fluoroskan Ascent microplate reader (Labsystems). Data in Tab. 8 present that series of 2-substituted-6-biarylmethylamino-9-cyclopentyl-9H-purine derivatives show a dose-dependent activatory effect on p53-regulated transcription, with the maximum impact observed between 100 and 500 nM concentrations for most of prepared compounds (Tab. 8).

[13] = system: human umbilical vein endothelial cells (HUVEC); assay: HUVEC proliferation, Calcein AM; type: cell-based; conditions: Homo sapiens, HUVEC, read-out: Inhibitory concentration for HUVEC cells - IC50
Method: Novel 2-substituted-6-biarylmethylamino-9-cyclopentyl-9H-purine derivatives were tested for their potential anti-angiogenic properties; we analyzed its influence on the proliferation (Tab. 9), migration and tube formation of human umbilical vein endothelial cells (HUVEC). Confluent HUVECs were seeded in 96-well microtiter plates to detect their proliferation for 24 or 72 h using Calcein AM solution (Invitrogen) and a Fluoroskan Ascent microplate reader (Labsystems) as described previously (Krystof et al., 2011, Eur J Med Chem. 2011 September; 46(9):4289-94).

[14] = HepG2, Table 3, read-out: Inhibitory concentration IC50, HepG2 (reference molecules)
[15] = Table 3, read-out: Inhibitory concentration IC50, Hep3B (reference molecules)
[16] = Table 3, read-out: Inhibitory concentration IC50, AKH3sp (reference molecules)
[17] = HCC-1.2, Table 3, read-out: Inhibitory concentration IC50, AKH3p (reference molecules)
[18] = Huh-7, Table 3, read-out: Inhibitory concentration IC50, HUH-7 (reference molecules)
[19] = PLC-PRF-5, Table 3, read-out: Inhibitory concentration IC50, PLC/PRF/5 (reference molecules)

T2 sequence (P50613 whole entry): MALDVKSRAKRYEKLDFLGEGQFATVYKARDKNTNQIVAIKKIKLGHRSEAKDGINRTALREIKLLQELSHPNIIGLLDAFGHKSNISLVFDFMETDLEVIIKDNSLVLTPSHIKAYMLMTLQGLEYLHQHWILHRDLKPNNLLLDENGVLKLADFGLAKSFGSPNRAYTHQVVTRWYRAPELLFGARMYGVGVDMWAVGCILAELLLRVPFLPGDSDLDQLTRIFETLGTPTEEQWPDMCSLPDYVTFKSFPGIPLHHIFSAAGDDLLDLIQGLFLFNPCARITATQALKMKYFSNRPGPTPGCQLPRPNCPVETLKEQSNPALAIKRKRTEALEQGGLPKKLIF
T2 sequence (P51946 whole entry partner): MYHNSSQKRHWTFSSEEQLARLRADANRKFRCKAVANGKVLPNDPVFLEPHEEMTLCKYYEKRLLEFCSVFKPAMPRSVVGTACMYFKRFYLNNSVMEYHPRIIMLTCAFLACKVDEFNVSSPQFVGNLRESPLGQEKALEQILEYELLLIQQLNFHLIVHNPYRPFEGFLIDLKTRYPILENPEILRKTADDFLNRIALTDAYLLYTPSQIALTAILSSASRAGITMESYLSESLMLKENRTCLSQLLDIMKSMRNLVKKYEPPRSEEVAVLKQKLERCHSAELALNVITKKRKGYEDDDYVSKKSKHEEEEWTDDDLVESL
T2 sequence (P51948 whole entry partner): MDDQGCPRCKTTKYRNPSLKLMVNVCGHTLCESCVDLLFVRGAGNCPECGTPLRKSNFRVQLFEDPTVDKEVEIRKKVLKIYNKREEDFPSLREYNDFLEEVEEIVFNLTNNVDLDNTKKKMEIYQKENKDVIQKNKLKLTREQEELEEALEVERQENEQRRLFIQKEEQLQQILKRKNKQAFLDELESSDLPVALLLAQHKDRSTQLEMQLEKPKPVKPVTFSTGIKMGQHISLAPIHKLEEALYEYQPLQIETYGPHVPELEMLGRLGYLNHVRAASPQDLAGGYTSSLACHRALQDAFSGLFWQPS
T1 sequence (Q00535 whole entry): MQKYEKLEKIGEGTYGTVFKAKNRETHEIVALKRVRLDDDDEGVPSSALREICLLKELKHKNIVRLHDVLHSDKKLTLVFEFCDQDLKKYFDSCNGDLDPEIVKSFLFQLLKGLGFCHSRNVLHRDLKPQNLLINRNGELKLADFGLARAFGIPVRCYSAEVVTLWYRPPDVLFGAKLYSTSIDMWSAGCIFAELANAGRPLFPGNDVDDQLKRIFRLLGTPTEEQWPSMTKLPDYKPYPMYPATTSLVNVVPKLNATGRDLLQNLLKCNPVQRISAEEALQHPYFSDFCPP
T1 sequence (Q15078 whole entry partner): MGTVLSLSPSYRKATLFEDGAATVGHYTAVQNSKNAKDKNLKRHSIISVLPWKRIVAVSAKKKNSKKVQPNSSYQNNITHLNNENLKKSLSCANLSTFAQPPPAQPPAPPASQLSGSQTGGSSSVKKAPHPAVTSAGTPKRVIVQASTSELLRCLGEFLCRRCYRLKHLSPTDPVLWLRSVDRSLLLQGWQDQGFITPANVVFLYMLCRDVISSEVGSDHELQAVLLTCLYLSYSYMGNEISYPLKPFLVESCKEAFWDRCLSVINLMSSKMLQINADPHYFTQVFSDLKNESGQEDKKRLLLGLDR
T3 sequence (P50750 whole entry): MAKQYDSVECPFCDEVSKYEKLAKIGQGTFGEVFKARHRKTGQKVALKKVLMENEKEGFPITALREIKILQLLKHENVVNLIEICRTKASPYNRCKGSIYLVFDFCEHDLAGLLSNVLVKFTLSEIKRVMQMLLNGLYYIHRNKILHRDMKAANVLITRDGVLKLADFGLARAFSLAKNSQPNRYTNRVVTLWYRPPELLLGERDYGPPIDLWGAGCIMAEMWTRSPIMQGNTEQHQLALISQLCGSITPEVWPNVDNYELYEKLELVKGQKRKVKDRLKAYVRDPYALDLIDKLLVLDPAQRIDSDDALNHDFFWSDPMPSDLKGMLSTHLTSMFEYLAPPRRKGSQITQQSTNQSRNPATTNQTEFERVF
T3 sequence (O60563 whole entry partner): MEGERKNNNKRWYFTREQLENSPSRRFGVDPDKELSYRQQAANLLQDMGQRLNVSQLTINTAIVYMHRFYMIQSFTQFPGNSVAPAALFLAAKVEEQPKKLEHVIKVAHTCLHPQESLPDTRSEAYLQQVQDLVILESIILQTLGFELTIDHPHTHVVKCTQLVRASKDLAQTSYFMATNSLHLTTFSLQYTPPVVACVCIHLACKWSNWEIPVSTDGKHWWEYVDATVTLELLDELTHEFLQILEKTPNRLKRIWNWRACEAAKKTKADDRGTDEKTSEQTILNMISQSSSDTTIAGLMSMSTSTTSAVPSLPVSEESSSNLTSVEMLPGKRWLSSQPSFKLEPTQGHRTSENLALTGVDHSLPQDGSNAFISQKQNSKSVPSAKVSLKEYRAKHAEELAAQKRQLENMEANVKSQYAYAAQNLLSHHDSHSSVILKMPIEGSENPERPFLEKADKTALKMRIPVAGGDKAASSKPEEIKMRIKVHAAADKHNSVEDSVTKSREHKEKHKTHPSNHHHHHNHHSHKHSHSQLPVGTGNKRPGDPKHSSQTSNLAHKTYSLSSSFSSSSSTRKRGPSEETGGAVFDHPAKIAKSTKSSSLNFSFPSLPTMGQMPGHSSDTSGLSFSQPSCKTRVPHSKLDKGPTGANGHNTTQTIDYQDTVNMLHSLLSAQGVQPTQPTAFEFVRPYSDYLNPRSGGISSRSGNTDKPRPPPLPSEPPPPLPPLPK

NC1CCC(Nc2nc(NCc3ccc(Br)nc3)c3ncn(C4CCCC4)c3n2)CC1 (stereo not drawn) [BP110, N^2-(4-amino-cyclohexyl)-N^6-(6-bromo-pyridin-3-ylmethyl)-9-cyclopentyl-9H-purine-2,6-diamine]
pIC50 ([1]; HepG2, 72 h, MTT, three days after drug addition, read-out: Inhibitory concentration IC50, HepG2): < 6.00 | pIC50 ([2]; 72 h, MTT, three days after drug addition, read-out: Inhibitory concentration IC50, Hep3B): 6.31 | pIC50 ([3]; 72 h, MTT, three days after drug addition, read-out: Inhibitory concentration IC50, 3sp): 6.29 | pIC50 ([4]; HCC-1.2, 72 h, MTT, three days after drug addition, read-out: Inhibitory concentration IC50, 3p): 6.48 | pIC50 ([5]; Huh-7, 72 h, MTT, three days after drug addition, read-out: Inhibitory concentration IC50, HUH-7): 6.29 | pIC50 ([6]; PLC-PRF-5, 72 h, MTT, three days after drug addition, read-out: Inhibitory concentration IC50, PLC/PRF/5): 6.40 | melting point: 114 to 116 °C

CC(C)(O)CNc1nc(NCc2ccc(-c3ccco3)nc2)c2ncn(C3CCCC3)c2n1 [BP117, 1-{9-cyclopentyl-6-[(6-furan-2-yl-pyridin-3-ylmethyl)-amino]-9H-purine-2-ylamino}-2-methyl-propan-2-ol]
remaining activity at 0.1 µM ([7]; 100 nM): 76.7% | remaining activity at 1 µM ([7]; 1000 nM): 39.6% | remaining activity at 0.1 µM ([8]; 100 nM): 76.3% | remaining activity at 1 µM ([8]; 1000 nM): 68.3% | remaining activity at 0.1 µM ([9]; 100 nM): 52.7% | remaining activity at 1 µM ([9]; 1000 nM): 23.2% | Relative caspase-3/7 activity in Hep3B cell line ([10]; 200 nM): 0.77 | Relative caspase-3/7 activity in Hep3B cell line ([10]; 400 nM): 0.89 | Relative caspase-3/7 activity in Hep3B cell line ([10]; 800 nM): 1.06 | Relative caspase-3/7 activity in Hep3B cell line ([10]; 1600 nM): 2.00 | Relative caspase-3/7 activity in PLC/PRF/5 cell line ([11]; compound concentration 160 nM): 0.79 | Relative caspase-3/7 activity in PLC/PRF/5 cell line ([11]; compound concentration 320 nM): 1.17 | Relative caspase-3/7 activity in PLC/PRF/5 cell line ([11]; compound concentration 640 nM): 2.60 | Relative caspase-3/7 activity in PLC/PRF/5 cell line ([11]; compound concentration 1280 nM): 2.99 | Concentration of maximum activation [12]: 950 nM | melting point: 128 to 129 °C

COc1cccc2c1C(=O)c1c(O)c3c(c(O)c1C2=O)C[C@@](O)(C(=O)CO)C[C@@H]3O[C@H]1C[C@H](N)[C@H](O)[C@H](C)O1 [doxorubicin, reference compound]
pIC50 [1, 14]: 5.86 | pIC50 ([13]; 24 h): < 5.18 | pIC50 ([13]; 72 h): < 5.18 | pIC50 [2, 15]: 6.34 | pIC50 [3, 16]: 6.57 | pIC50 [4, 17]: 6.27 | pIC50 [5, 18]: 5.90 | pIC50 [6, 19]: 6.17

CNC(=O)c1cc(Oc2ccc(NC(=O)Nc3ccc(Cl)c(C(F)(F)F)c3)cc2)ccn1 [sorafenib, reference compound]
pIC50 [1, 14]: 5.23 | pIC50 ([13]; 24 h): < 4.30 | pIC50 ([13]; 72 h): < 5.00 | pIC50 [2, 15]: 5.43 | pIC50 [3, 16]: 5.19 | pIC50 [4, 17]: 5.35 | pIC50 [5, 18]: 5.54 | pIC50 [6, 19]: 5.39
